From patent US9255094B2, “Pyrido[4,3-B]indoles and methods of use” (Medivation Technologies, Inc., priority 2009, dated 2016)

Experiments:
[1] = molecular target: T1, human recombinant serotonin (5-Hydroxytryptamine) 5-HT2C receptor (Homo sapiens, UniProt P28335); assay: Serotonin 5-HT2C radioligand binding assay ([3H]Mesulergine); details: 1 nM [3H]Mesulergine, CHO-K1 cells; for inhibition at 0.1 µM: compound at 0.1 μM, read-out: Percent Inhibition of ligand binding, Serotonin (0.1 μM) 5-HT2C; for inhibition at 1 µM: compound at 1 μM, read-out: Percent Inhibition of ligand binding, Serotonin (1 μM) 5-HT2C
T1 construct: expressed in transfected cells; host or cells: Chinese hamster ovary (CHO-K1) cells
T1 sequence (P28335 33-458): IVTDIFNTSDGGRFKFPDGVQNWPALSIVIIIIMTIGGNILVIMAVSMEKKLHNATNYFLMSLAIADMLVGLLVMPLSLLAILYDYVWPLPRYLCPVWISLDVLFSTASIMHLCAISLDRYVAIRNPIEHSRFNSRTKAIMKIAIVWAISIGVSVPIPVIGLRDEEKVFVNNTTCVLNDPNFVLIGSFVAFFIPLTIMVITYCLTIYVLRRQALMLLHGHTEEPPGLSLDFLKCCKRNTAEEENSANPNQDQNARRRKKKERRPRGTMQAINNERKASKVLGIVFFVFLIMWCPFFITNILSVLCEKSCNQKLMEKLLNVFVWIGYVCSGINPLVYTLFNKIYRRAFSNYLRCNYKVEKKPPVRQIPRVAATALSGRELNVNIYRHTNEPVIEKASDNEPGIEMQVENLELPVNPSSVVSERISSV
Experimental: Compounds of the invention were incubated with 1 nM [^3H]Mesulergine for 60 min at 25° C. Non-specific binding was estimated in the presence of 1 μM Mianserin. Receptor proteins were filtered and washed, the filters were then counted to determine [^3H]Mesulergine specifically bound. Compounds were screened at 1 μM or lower, using 1% DMSO as vehicle. Biochemical assay results are presented as the percent inhibition of specific binding in Table 4.

[2] = molecular target: human recombinant serotonin (5-Hydroxytryptamine) 5-HT7 receptor (Homo sapiens, UniProt P34969); assay: Serotonin 5-HT7 radioligand binding assay ([3H]LSD); details: 5.5 nM [3H]LSD, CHO cells; for inhibition at 0.1 µM: compound at 0.1 μM, read-out: Percent Inhibition of ligand binding, Serotonin (0.1 μM) 5-HT7; for inhibition at 1 µM: compound at 1 μM, read-out: Percent Inhibition of ligand binding, Serotonin (1 μM) 5-HT7
Chain of human recombinant serotonin (5-Hydroxytryptamine) 5-HT7 receptor (P34969 whole entry): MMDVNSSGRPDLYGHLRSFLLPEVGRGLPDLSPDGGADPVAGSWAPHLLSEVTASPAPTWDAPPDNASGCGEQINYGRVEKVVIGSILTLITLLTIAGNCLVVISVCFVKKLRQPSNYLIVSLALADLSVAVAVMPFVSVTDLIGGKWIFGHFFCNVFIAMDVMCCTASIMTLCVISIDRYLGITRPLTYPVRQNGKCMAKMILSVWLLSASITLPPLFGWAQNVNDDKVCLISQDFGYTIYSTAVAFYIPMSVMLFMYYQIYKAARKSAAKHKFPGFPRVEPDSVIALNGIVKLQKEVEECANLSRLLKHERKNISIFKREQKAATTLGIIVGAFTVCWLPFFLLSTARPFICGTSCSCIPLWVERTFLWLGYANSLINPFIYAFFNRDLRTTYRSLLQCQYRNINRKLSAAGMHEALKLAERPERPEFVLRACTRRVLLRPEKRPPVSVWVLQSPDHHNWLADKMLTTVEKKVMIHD
Experimental: Compounds of invention were incubated with 5.5 nM [^3H] Lysergic acid diethylamide (LSD) for 2 h at 25° C. […] Receptor proteins were filtered and washed, the filters were then counted to determine [^3H]LSD specifically bound. Compounds were screened at 1 μM or lower, using 1% DMSO as vehicle. Biochemical assay results are presented as the percent inhibition of specific binding in Table 4.

[3] = molecular target: human recombinant histamine H1 receptor (Homo sapiens, UniProt P35367); assay: Histamine H1 radioligand binding assay ([3H]Pyrilamine); details: receptor expressed in CHO cells; for inhibition at 1 µM: compound at 1 μM; for inhibition at 0.1 µM: compound at 0.1 μM
Chain of human recombinant histamine H1 receptor (P35367 whole entry): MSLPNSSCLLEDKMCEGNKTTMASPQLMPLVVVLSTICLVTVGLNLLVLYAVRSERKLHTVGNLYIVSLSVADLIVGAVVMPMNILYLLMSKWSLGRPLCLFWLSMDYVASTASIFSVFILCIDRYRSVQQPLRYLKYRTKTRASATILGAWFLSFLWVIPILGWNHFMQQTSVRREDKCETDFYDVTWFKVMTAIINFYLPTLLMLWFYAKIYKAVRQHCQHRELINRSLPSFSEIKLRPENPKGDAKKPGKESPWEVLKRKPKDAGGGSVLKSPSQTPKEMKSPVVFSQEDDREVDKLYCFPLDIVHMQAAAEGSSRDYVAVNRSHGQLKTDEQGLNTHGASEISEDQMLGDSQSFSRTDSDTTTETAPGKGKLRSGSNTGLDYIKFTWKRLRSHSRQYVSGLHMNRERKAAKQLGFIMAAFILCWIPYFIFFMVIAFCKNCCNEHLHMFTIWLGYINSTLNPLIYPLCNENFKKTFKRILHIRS
Procedure, shortened: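 Membranes from CHO cells expressing the receptor, in 50 mM Tris-HCl pH 7.4 with 2 mM MgCl2, 100 mM NaCl and 250 mM sucrose, incubated with 1.2 nM [3H]pyrilamine for 180 min at 25° C; nonspecific binding defined with 1 μM pyrilamine.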

[4] = molecular target: T2, human recombinant adrenergic α2B receptor (Homo sapiens, UniProt P18089); assay: Adrenergic α2B radioligand binding assay ([3H]Rauwolscine); details: 2.5 nM [3H]Rauwolscine, CHO-K1 cells; for inhibition at 0.1 µM: compound at 0.1 μM, read-out: Percent Inhibition of ligand binding, Adrenergic (0.1 μM) a2B; for inhibition at 1 µM: compound at 1 μM, read-out: Percent Inhibition of ligand binding, Adrenergic (1 μM) a2B
T2 construct: expressed in transfected cells; host or cells: Chinese hamster ovary (CHO-K1) cells
T2 sequence (P18089 1-450): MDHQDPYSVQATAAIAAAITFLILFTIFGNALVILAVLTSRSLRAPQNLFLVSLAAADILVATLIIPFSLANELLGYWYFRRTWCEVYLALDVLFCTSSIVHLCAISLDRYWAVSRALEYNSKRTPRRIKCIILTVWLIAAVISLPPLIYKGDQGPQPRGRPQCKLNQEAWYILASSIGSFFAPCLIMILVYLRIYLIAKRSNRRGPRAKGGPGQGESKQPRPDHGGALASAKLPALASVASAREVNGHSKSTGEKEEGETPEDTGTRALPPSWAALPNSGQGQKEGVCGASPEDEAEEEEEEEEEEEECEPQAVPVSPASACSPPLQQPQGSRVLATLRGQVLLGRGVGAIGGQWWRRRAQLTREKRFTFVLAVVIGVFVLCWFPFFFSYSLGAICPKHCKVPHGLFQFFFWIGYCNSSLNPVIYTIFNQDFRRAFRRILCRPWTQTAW
Experimental: To evaluate in radioligand binding assays the activity of compounds of the invention, human recombinant adrenergic α2B receptor expressed in Chinese hamster ovary (CHO-K1) cells (Uhlen S et al., Eur. J. Pharmacol. 343(1):93, 1998) in a modified Tris-HCl buffer (50 mM Tris-HCl, pH 7.4, 12.5 mM MgCl2, 1 mM EDTA, 0.2% BSA) was used. Compounds of the invention were incubated with 2.5 nM [^3H]Rauwolscine for 60 min at 25° C. Non-specific binding was estimated in the presence of 10 μM Prozosin. Receptor proteins were filtered and washed, the filters were then counted to determine [^3H]Rauwolscine specifically bound.

SMILES	inhibition at 0.1 µM [1]	inhibition at 0.1 µM [2]	inhibition at 1 µM [3]	inhibition at 0.1 µM [4]	inhibition at 0.1 µM [3]	inhibition at 1 µM [4]	inhibition at 1 µM [1]	inhibition at 1 µM [2]
Cc1ccc2c(c1)c1c(n2CC(C)c2ccncc2)CCN(C)C1 (stereo not drawn) [Compound 1-46, 2,8-dimethyl-5-(2-(pyridin-4-yl)propyl)-2,3,4,5-tetrahydro-1H-pyrido[4,3-b]indole]	83%	93%	90%					
CCCC[C@](O)(Cn1c2c(c3cc(Cl)ccc31)CN(C)CC2)c1ccc(F)cc1 [Compound 1-61, (R)-1-(8-Chloro-2-methyl-3,4-dihydro-1H-pyrido[4,3-b]indol-5(2H)-yl)-2-(4-fluorophenyl)hexan-2-ol]	88%	-12%		2%	-7%			
Cc1ccc2c(c1)c1c(n2CCc2ccc(C)nc2)CCN(CC(F)(F)F)C1 [Compound 1-65, 8-methyl-5-(2-(6-methylpyridin-3-yl)ethyl)-2-(2,2,2-trifluoroethyl)-2,3,4,5-tetrahydro-1H-pyrido[4,3-b]indole]	6%	-15%		-9%	11%			
CC[C@](O)(Cn1c2c(c3cc(C)ccc31)CN(C)CC2)c1ccc(F)cc1 [Compound 1-60, (R)-1-(2,8-Dimethyl-3,4-dihydro-1H-pyrido[4,3-b]indol-5(2H)-yl)-2-(4-fluorophenyl)butan-2-ol]	67%	16%		1%	10%			
CCCC[C@@](O)(Cn1c2c(c3cc(Cl)ccc31)CN(C)CC2)c1ccc(F)cc1 [Compound 1-67, (S)-1-(8-chloro-2-methyl-3,4-dihydro-1H-pyrido[4,3-b]indol-5(2H)-yl)-2-(4-fluorophenyl)hexan-2-ol]	51%	-8%		-3%	-2%			
Cc1ccc2c(c1)c1c(n2CCc2ccc(C)nc2)CCN(CCC#N)C1 [Compound 1-34, 3-(8-methyl-5-(2-(6-methylpyridin-3-yl)ethyl)-3,4-dihydro-1H-pyrido[4,3-b]indol-2(5H)-yl)propanenitrile]			65%			23%	16%	
CC[C@](O)(Cn1c2c(c3cc(C)ccc31)CN(C)CC2)c1ccncc1 [Compound 1-63, (R)-1-(2,8-Dimethyl-3,4-dihydro-1H-pyrido[4,3-b]indol-5(2H)-yl)-2-(pyridine-4-yl)butan-2-ol]	25%	25%		47%	18%			
Cc1ccc2c(c1)c1c(n2CCc2ccc(C(F)(F)F)nc2)CCNC1 [Compound 1-41, 8-methyl-5-(2-(6-(trifluoromethyl)pyridin-3-yl)ethyl)-2,3,4,5-tetrahydro-1H-pyrido[4,3-b]indole]			72%			89%	41%	59%
CN1CCc2c(c3cc(Cl)c(Cl)cc3n2CC(C)(O)c2ccncc2)C1 (stereo not drawn) [Compound 1-17, 1-(7,8-dichloro-2-methyl-3,4-dihydro-1H-pyrido[4,3-b]indol-5(2H)-yl)-2-(pyridin-4-yl)propan-2-ol]				64%				
COc1ccc([C@](C)(O)Cn2c3c(c4cc(C)ccc42)CN(C)CC3)cc1 [Compound 1-20, (S)-1-(2,8-Dimethyl-3,4-dihydro-1H-pyrido[4,3-b]indol-5(2H)-yl)-2-(4-methoxyphenyl)propan-2-ol]				79%				
Cc1ccc2c(c1)c1c(n2CCc2ccc(C)nc2)CCN(CCCO)C1 [Compound 1-42, 3-(8-methyl-5-(2-(6-methylpyridin-3-yl)ethyl)-3,4-dihydro-1H-pyrido[4,3-b]indole-2(5H)-yl)propan-1-ol]			93%			39%	90%	63%
Cc1ccc2c(c1)c1c(n2CC(=O)c2ccc(F)cc2)CCN(C)C1 [Compound 1-39, 2-(2,8-dimethyl-3,4-dihydro-1H-pyrido[4,3-b]indol-5(2H)-yl)-1-(4-fluorophenyl)ethanone]			86%			92%	104%	95%
CC[C@@](O)(Cn1c2c(c3cc(C)ccc31)CN(C)CC2)c1ccc(F)cc1 [Compound 1-66, (S)-1-(2,8-dimethyl-3,4-dihydro-1H-pyrido[4,3-b]indol-5(2H)-yl)-2-(4-fluorophenyl)butan-2-ol]	84%	19%			-12%			
Cc1ccc2c(c1)c1c(n2CC(C)(O)c2ccc(O)cc2)CCN(C)C1 (stereo not drawn) [Compound 1-15, 4-(1-(2,8-dimethyl-3,4-dihydro-1H-pyrido[4,3-b]indol-5(2H)-yl)-2-hydroxypropan-2-yl)phenol]				103%				
CC[C@@](O)(Cn1c2c(c3cc(C)ccc31)CN(C)CC2)c1ccncc1 [Compound 1-62, (S)-1-(2,8-Dimethyl-3,4-dihydro-1H-pyrido[4,3-b]indol-5(2H)-yl)-2-(pyridine-4-yl)butan-2-ol]	33%	30%			3%			
CN1CCc2c(c3cc(Cl)ccc3n2CC(=O)c2ccc(Cl)cc2)C1 [Compound 1-38, 2-(8-chloro-2-methyl-3,4-dihydro-1H-pyrido[4,3-b]indol-5(2H)-yl)-1-(4-chlorophenyl)ethanone]			91%			92%	101%	81%
Cc1ccc2c(c1)c1c(n2CCc2ccc(CCCN)nc2)CCN(C)C1 [Compound 1-40, 3-(5-(2-(2,8-dimethyl-3,4-dihydro-1H-pyrido[4,3-b]indol-5(2H)-yl)ethyl)pyridin-2-yl)propan-1-amine]			81%			63%	91%	
CN1CCc2c(c3cc(Cl)ccc3n2CC(=O)c2ccccc2)C1 [Compound 1-36, 2-(8-chloro-2-methyl-3,4-dihydro-1H-pyrido[4,3-b]indol-5(2H)-yl)-1-phenylethanone]			84%			92%	94%	
Cc1ccc2c(c1)c1c(n2CC(C)(C)c2ccncc2)CCN(C)C1 [Compound 1-49, 2,8-dimethyl-5-(2-methyl-2-(pyridin-4-yl)propyl)-2,3,4,5-tetrahydro-1H-pyrido[4,3-b]indole]	96%	95%	94%					
Cc1ccc2c(c1)c1c(n2CC(=O)c2ccccc2)CCN(C)C1 [Compound 1-35, 2-(2,8-dimethyl-3,4-dihydro-1H-pyrido[4,3-b]indol-5(2H)-yl)-1-phenylethanone]			52%			59%	75%	
